According to patent US9795643B2, “Oncolytic measles virus” (priority 2010, dated 2017):

System: subcutaneously grown Hep3B tumors
Assay: Murine xenograft model of human HCC (Hep3B)
Type: in vivo, nude mice
Method: To test the armed vectors pc3MerV2 Id-SCD, pMerV2 P-SCD, and pc3MerV2 Id-VP22SCD in vivo, a murine xenograft model of human HCC was applied.
To compare the armed vectors, a mouse model of subcutaneously grown Hep3B tumors was chosen. This decision was based on the facts (i) that Hep3B can be efficiently infected by MeV and support MeV replication at high levels, (ii) that in Hep3B, the conversion of 5-FC into 5-FU is fast and efficient and (iii) that over an incubation of 1-4 days after addition of the prodrug to infected cells, an increasing gap between the treatment with virus alone and the combination treatment can be observed. Additionally, a mouse model of Hep3B has been described before (Blechacz B, Splinter P L, Greiner S, Myers R, Peng K W, Federspiel M J, Russell S J, LaRusso N F. Hepatology. 2006 December; 44(6):1465-77) with a high engraftment ratio (80%, personal communication with Boris Blechacz, Mayo Clinic, Rochester, Minn., USA). In contrast, this ratio is much lower in PLC/PRF/5 (60%) and in HepG2, both determined in our laboratory.
For this in vivo experiment, six week old nude mice received subcutaneous injections of 100 μl cell suspension containing 10^6 Hep3B cells in PBS. […] The tumors were very well vascularized and appeared blue through the nude skin of the mice. After the tumors had grown to a diameter of approximately 5 mm, the mice received five intratumoral injections of the respective virus (MeV Id-SCD, MeV Id-VP22SCD or MeV P-SCD) with 2*10^6 pfu per injection and one injection daily (total dose: 10^7 pfu). Control groups were treated with medium only. On the following seven days, the mice received 500 mg/kg bodyweight 5-FC in PBS intraperitoneally. Tumor volume and weight of the animals were determined three times a week.
The combinatorial treatment (MeV-SCD+5-FC) did neither lead to any visible changes in the behavior of the animals, nor did they show reactions like enhanced sensitivity to touch. The skin of the mice looked healthy, no changes in their movement or feeding behaviors were observed and their weight remained stable.

## Nc1nc(=O)[nH]cc1F [5-FC, 5-fluorocytosine]
5-FC 500 mg/kg i.p., 7 days, no virus
  effect of administration of the prodrug alone: no effect
5-FC only group
  day before which all mice had to be sacrificed: < 50 days
Virus 5 intratumoral injections 2*10^6 pfu, 5-FC 500 mg/kg i.p. for 7 days
  median survival: 32 days
